Measured values: patent publication US20160046592A1, “PHARMACEUTICAL COMPOSITION FOR THE TREATMENT OF DIABETES” (Ajinomoto Co., Inc., priority 2013, published 2016)
Counter-ions that a name gives are not always drawn.

Target: T1, human GYS1 (glycogen synthase) (Homo sapiens, UniProt P13807)
T1 construct: made in house; host or cells: HEK293T
T1 sequence (P13807 1-737): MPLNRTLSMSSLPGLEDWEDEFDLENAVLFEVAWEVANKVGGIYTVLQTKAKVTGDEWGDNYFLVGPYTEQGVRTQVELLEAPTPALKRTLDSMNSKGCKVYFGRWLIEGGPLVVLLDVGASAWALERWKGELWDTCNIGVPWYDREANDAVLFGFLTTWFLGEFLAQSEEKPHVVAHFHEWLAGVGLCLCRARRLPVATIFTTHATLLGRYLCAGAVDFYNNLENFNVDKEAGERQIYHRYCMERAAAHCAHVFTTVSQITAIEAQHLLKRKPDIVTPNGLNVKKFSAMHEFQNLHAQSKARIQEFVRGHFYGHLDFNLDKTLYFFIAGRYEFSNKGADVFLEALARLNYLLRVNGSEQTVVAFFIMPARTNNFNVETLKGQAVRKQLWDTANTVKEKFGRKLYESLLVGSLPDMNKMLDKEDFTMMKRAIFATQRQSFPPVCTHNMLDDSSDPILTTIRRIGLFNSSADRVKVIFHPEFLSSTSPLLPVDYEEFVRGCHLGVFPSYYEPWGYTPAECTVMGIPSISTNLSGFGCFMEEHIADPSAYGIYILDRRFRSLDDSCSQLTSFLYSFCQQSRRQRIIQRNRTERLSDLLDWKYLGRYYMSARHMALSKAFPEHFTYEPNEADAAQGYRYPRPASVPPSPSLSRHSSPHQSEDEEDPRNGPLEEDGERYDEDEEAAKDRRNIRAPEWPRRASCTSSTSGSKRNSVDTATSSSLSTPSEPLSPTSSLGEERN
Assay: Measurement of glycogen synthase activity
Assay type: biochemical
Conditions: concentration causing 50% increase in relative activity; 100% = compound of Example 1 of WO/2011/058154 at 10 μM; 10 mM Glucose-6-phosphate; 37° C. for 25 minutes (Examples 1 to 61 and 67 to 82) or 20 minutes (Examples 62 to 66); absorbance at 340 nm
In short: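 Human GYS1 from transfected HEK293T cells (re-dissolved 16000×g pellet) was reacted at 37 °C for 25 or 20 min in glycylglycine pH 7.3 with glucose-6-phosphate, glycogen and UDP-glucose. PK/LDH-coupled NADH read-out at 340 nm; EC50 from activity relative to a reference activator at 10 μM final (100%).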

Structure (SMILES)	EC50
CSc1cc(F)c(F)cc1-c1ccc(OCc2cccc(C(=O)N3C(C(N)=O)CC[C@H]3C(=O)O)c2)cc1 (single isomer, unassigned) [Example 58, (2S,5S) or (2S,5R)-5-Carbamoyl-1-[3-[[4-(4,5-difluoro-2-methylsulfanyl-phenyl)phenoxy]methyl]benzoyl]pyrrolidine-2-carboxylic Acid]	7.3 nM
O=C(O)CN(CC1CCOCC1)C(=O)c1cccc(COc2ccc(-c3cc(F)c(F)c4ccoc34)cc2)c1 [Example 9, 2-[[3-[[4-(4,5-Difluorobenzofuran-7-yl)phenoxy]methyl]benzoyl]-(tetrahydropyran-4-ylmethyl)amino]acetic Acid]	16 nM
CCN(CC)CCN(CC(=O)O)C(=O)c1cccc(COc2ccc(-c3cc(F)c(F)cc3SC)cc2)c1 [Example 24, 2-[2-Diethylaminoethyl-[3-[[4-(4,5-difluoro-2-methylsulfanyl-phenyl)phenoxy]methyl]benzoyl]amino]acetic Acid Trifluoroacetate]	11 nM
CSc1cc(F)c(F)cc1-c1ccc(OCc2cccc(C(=O)N(CCS(C)(=O)=O)CC(=O)O)c2)cc1 [Example 31, 2-[[3-[[4-(4,5-Difluoro-2-methylsulfanyl-phenyl)phenoxy]methyl]benzoyl]-(2-methylsulfonylethyl)amino]acetic Acid]	18 nM
CSc1cc(F)c(F)cc1-c1ccc(OCc2cccc(C(=O)N(CC(=O)O)Cc3ccn[nH]3)c2)cc1 [Example 54, 2-[[3-[[4-(4,5-Difluoro-2-methylsulfanyl-phenyl)phenoxy]methyl]benzoyl]-(1H-pyrazol-5-ylmethyl)amino]acetic Acid]	15 nM
CN(C)CCN(CC(=O)O)C(=O)c1cccc(COc2ccc(-c3cc(F)c(F)c4ccoc34)cc2)c1 [Example 13, 2-[[3-[[4-(4,5-Difluorobenzofuran-7-yl)phenoxy]methyl]benzoyl]-(2-dimethylaminoethyl)amino]acetic Acid Trifluoroacetate]	15 nM
CSc1cc(F)c(F)cc1-c1ccc(OCc2cccc(C(=O)N3C(CC#N)CC[C@H]3C(=O)O)c2)cc1 (stereo partly drawn) [Example 72, (2S)-5-(Cyanomethyl)-1-[3-[[4-(4,5-difluoro-2-methylsulfanyl-phenyl)phenoxy]methyl]benzoyl]pyrrolidine-2-carboxylic Acid]	11 nM
COCCOCCN(CC(=O)O)C(=O)c1cccc(COc2ccc(-c3cc(F)c(F)cc3SC)cc2)c1 [Example 49, 2-[[3-[[4-(4,5-Difluoro-2-methylsulfanyl-phenyl)phenoxy]methyl]benzoyl]-[2-(2-methoxyethoxy)ethyl]amino]acetic Acid]	9.5 nM
N#CCCN(CC(=O)O)C(=O)c1cccc(COc2ccc(-c3cc(F)c(F)c4ccoc34)cc2)c1 [Example 75, 2-[2-Cyanoethyl-[3-[[4-(4,5-difluorobenzofuran-7-yl)phenoxy]methyl]benzoyl]amino]acetic Acid]	22 nM
COC[C@H]1CC[C@@H](C(=O)O)N1C(=O)c1cccc(COc2ccc(-c3cc(F)c(F)cc3SC)cc2)c1 [Example 65, (2S,5R)-1-[3-[[4-(4,5-Difluoro-2-methylsulfanyl-phenyl)phenoxy]methyl]benzoyl]-5-(methoxymethyl)pyrrolidine-2-carboxylic Acid]	18 nM
CSc1cc(F)c(F)cc1-c1ccc(OCc2cccc(C(=O)N(CC(=O)O)[C@H]3CC[C@@H](N)CC3)c2)cc1 [Example 48, 2-[(4-Aminocyclohexyl)-[3-[[4-(4,5-difluoro-2-methylsulfanyl-phenyl)phenoxy]methyl]benzoyl]amino]acetic Acid Trifluoroacetate]	13 nM
CSc1cc(F)c(F)cc1-c1ccc(OCc2cccc(C(=O)N(CC(=O)O)Cc3cocn3)c2)cc1 [Example 52, 2-[[3-[[4-(4,5-Difluoro-2-methylsulfanyl-phenyl)phenoxy]methyl]benzoyl]-(oxazol-4-ylmethyl)amino]acetic Acid]	4.4 nM
CSc1cc(F)c(F)cc1-c1ccc(OCc2cccc(C(=O)N(CCc3noc(C)n3)CC(=O)O)c2)cc1 [Example 60, 2-[[3-[[4-(4,5-Difluoro-2-methylsulfanyl-phenyl)phenoxy]methyl]benzoyl]-[2-(5-methyl-1,2,4-oxadiazol-3-yl)ethyl]amino]acetic Acid]	11 nM
CNCCN(CC(=O)O)C(=O)c1cccc(COc2ccc(-c3cc(F)c(F)cc3SC)cc2)c1 [Example 28, 2-[[3-[[4-(4,5-Difluoro-2-methylsulfanyl-phenyl)phenoxy]methyl]benzoyl]-[2-(methylamino)ethyl]amino]acetic Acid Trifluoroacetate]	10 nM
NC(=O)C1CC[C@@H](C(=O)O)N1C(=O)c1cccc(COc2ccc(-c3cc(F)c(F)c4ccoc34)cc2)c1 (single isomer, unassigned) [Example 76, (2S,5S) or (2S,5R)-5-Carbamoyl-1-[3-[[4-(4,5-difluorobenzofuran-7-yl)phenoxy]methyl]benzoyl]pyrrolidine-2-carboxylic Acid]	22 nM
CSc1cc(F)c(F)cc1-c1ccc(OCc2cccc(C(=O)N(CCS(=O)(=O)N(C)C)CC(=O)O)c2)cc1 [Example 59, 2-[[3-[[4-(4,5-Difluoro-2-methylsulfanyl-phenyl)phenoxy]methyl]benzoyl]-[2-(dimethylsulfamoyl)ethyl]amino]acetic Acid]	16 nM
CSc1cc(F)c(F)cc1-c1ccc(OCc2cccc(C(=O)N(CC(=O)O)CC(=O)O)c2)cc1 [Example 27, 2-[Carboxymethyl-[3-[[4-(4,5-difluoro-2-methylsulfanyl-phenyl)phenoxy]methyl]benzoyl]amino]acetic Acid]	10 nM
CCN1CCC(CN(CC(=O)O)C(=O)c2cccc(COc3ccc(-c4cc(F)c(F)cc4SC)cc3)c2)CC1 [Example 38, 2-[[3-[[4-(4,5-Difluoro-2-methylsulfanyl-phenyl)phenoxy]methyl]benzoyl]-[(1-ethyl-4-piperidyl)methyl]amino]acetic Acid Trifluoroacetate]	19 nM
CSc1cc(F)c(F)cc1-c1ccc(OCc2cccc(C(=O)N3C[C@H](O)C[C@H]3C(=O)O)c2)cc1 [Example 29, (2S,4R)-1-[3-[[4-(4,5-Difluoro-2-methylsulfanyl-phenyl)phenoxy]methyl]benzoyl]-4-hydroxy-pyrrolidine-2-carboxylic Acid]	19 nM
CSc1cc(F)c(F)cc1-c1ccc(OCc2cccc(C(=O)N(CCS(N)(=O)=O)CC(=O)O)c2)cc1 [Example 51, 2-[[3-[[4-(4,5-Difluoro-2-methylsulfanyl-phenyl)phenoxy]methyl]benzoyl]-(2-sulfamoylethyl)amino]acetic Acid]	5.2 nM
CSc1cc(F)c(F)cc1-c1ccc(OCc2cccc(C(=O)N(CC(=O)O)Cc3ccncn3)c2)cc1 [Example 53, 2-[[3-[[4-(4,5-Difluoro-2-methylsulfanyl-phenyl)phenoxy]methyl]benzoyl]-(pyrimidin-4-ylmethyl)amino]acetic Acid]	7.9 nM
CSc1cc(F)c(F)cc1-c1ccc(OCc2cccc(C(=O)N(CC(=O)O)Cc3ncco3)c2)cc1 [Example 42, 2-[[3-[[4-(4,5-Difluoro-2-methylsulfanyl-phenyl)phenoxy]methyl]benzoyl]-(oxazol-2-ylmethyl)amino]acetic Acid]	19 nM
CSc1cc(F)c(F)cc1-c1ccc(OCc2cccc(C(=O)N(CC(=O)O)Cc3ccon3)c2)cc1 [Example 66, 2-[[3-[[4-(4,5-Difluoro-2-methylsulfanyl-phenyl)phenoxy]methyl]benzoyl]-(isoxazol-3-ylmethyl)amino]acetic Acid]	15 nM
CSc1cc(F)c(F)cc1-c1ccc(OCc2cccc(C(=O)N(CC(=O)O)Cc3nc(C)no3)c2)cc1 [Example 68, 2-[[3-[[4-(4,5-Difluoro-2-methylsulfanyl-phenyl)phenoxy]methyl]benzoyl]-[(3-methyl-1,2,4-oxadiazol-5-yl)methyl]amino]acetic Acid]	< 3 nM
CN(C)C(=O)CN(CC(=O)O)C(=O)c1cccc(COc2ccc(-c3cc(F)c(F)c4ccoc34)cc2)c1 [Example 11, 2-[[3-[[4-(4,5-Difluorobenzofuran-7-yl)phenoxy]methyl]benzoyl]-[2-(dimethylamino)-2-oxo-ethyl]amino]acetic Acid]	10 nM
O=C(O)[C@@H]1[C@@H](O)CCN1C(=O)c1cccc(COc2ccc(-c3cc(F)c(F)c4ccoc34)cc2)c1 [Example 2, (2S,3S)-1-[3-[[4-(4,5-Difluorobenzofuran-7-yl)phenoxy]methyl]benzoyl]-3-hydroxy-pyrrolidine-2-carboxylic Acid]	4.3 nM
